According to PubChem BioAssay AID1963825 (Molecular Pharmacology Branch, DTP, NCI, 2024):

Assay: Anticancer human tumor 997537-175-T-J1-PDC patient-derived colon adenocarcinoma cell line growth inhibition [POLQ]
Details: 997537-175-T-J1-PDC complex spheroid viability, combination with POLQ inhibitors; for IC50: curve of first compound; for viability, T/C: stronger effect = lower value
Method in brief: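 Three-cell-type spheroids modelling solid tumor plus stroma served as the readout system; POL inhibitors were tested individually and in combination, concentration ranges set by clinical Cmax where known.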

[1] = second compound 0.0316 µM, first compound 0.0316 µM
[2] = second compound 0.0316 µM, first compound 0.1 µM
[3] = second compound 0.0316 µM, first compound 0.316 µM
[4] = second compound 0.0316 µM, first compound 1 µM
[5] = second compound 0.0316 µM, first compound 3.16 µM
[6] = second compound 0.0316 µM, first compound 10 µM
[7] = second compound 0.1 µM, first compound 0.0316 µM
[8] = second compound 0.1 µM, first compound 0.1 µM
[9] = second compound 0.1 µM, first compound 0.316 µM
[10] = second compound 0.1 µM, first compound 1 µM
[11] = second compound 0.1 µM, first compound 3.16 µM
[12] = second compound 0.1 µM, first compound 10 µM
[13] = second compound 0.316 µM, first compound 0.0316 µM
[14] = second compound 0.316 µM, first compound 0.1 µM
[15] = second compound 0.316 µM, first compound 0.316 µM
[16] = second compound 0.316 µM, first compound 1 µM
[17] = second compound 0.316 µM, first compound 3.16 µM
[18] = second compound 0.316 µM, first compound 10 µM
[19] = second compound 1 µM, first compound 0.0316 µM
[20] = second compound 1 µM, first compound 0.1 µM
[21] = second compound 1 µM, first compound 0.316 µM
[22] = second compound 1 µM, first compound 1 µM
[23] = second compound 1 µM, first compound 3.16 µM
[24] = second compound 1 µM, first compound 10 µM
[25] = second compound 3.16 µM, first compound 0.0316 µM
[26] = second compound 3.16 µM, first compound 0.1 µM
[27] = second compound 3.16 µM, first compound 0.316 µM
[28] = second compound 3.16 µM, first compound 1 µM
[29] = second compound 3.16 µM, first compound 3.16 µM
[30] = second compound 3.16 µM, first compound 10 µM
[31] = second compound 10 µM, first compound 0.0316 µM
[32] = second compound 10 µM, first compound 0.1 µM
[33] = second compound 10 µM, first compound 0.316 µM
[34] = second compound 10 µM, first compound 1 µM
[35] = second compound 10 µM, first compound 3.16 µM
[36] = second compound 10 µM, first compound 10 µM
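Note: luminescence signal used as a surrogate for viable cells; spheroids exposed to drugs for seven days before readout.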

Work on `CC1COCCN1c1cc(C2(O)CC3CCC(C2)O3)c2cnn(-c3ccn[nH]3)c2n1` (stereo unspecified) + COC1C(OC(N)=O)C(O)C(Oc2ccc3c(O)c(NC(=O)c4ccc(O)c(CC=C(C)C)c4)c(=O)oc3c2C)OC1(C)C yielded an IC50 (second compound 0.0316 µM) of 234 nM, an IC50 (second compound 0.1 µM) of 276 nM and an IC50 (second compound 0.316 µM) of 290 nM. For the same compound, the IC50 (second compound 1 µM) was over 10000 nM, the IC50 (second compound 3.16 µM) was over 10000 nM and the IC50 (second compound 10 µM) was over 10000 nM. It also gave a viability, T/C [1] of 72.4%, a viability, T/C [2] of 70.1% and a viability, T/C [3] of 42.2%. It also gave a viability, T/C [4] of 36.9%, a viability, T/C [5] of 40.1% and a viability, T/C [6] of 52%. It also gave a viability, T/C [7] of 75.6%, a viability, T/C [8] of 81.3% and a viability, T/C [9] of 36%. The viability, T/C [10] was 37.9%, the viability, T/C [11] was 50.3% and the viability, T/C [12] was 60.8%. For the same compound, the viability, T/C [13] was 84.2%, the viability, T/C [14] was 66.8% and the viability, T/C [15] was 41.2%. For the same compound, the viability, T/C [16] was 51.1%, the viability, T/C [17] was 51.4% and the viability, T/C [18] was 50.8%. The viability, T/C [19] was 82.9%, the viability, T/C [20] was 68% and the viability, T/C [21] was 59.5%. It also gave a viability, T/C [22] of 55.3%, a viability, T/C [23] of 64.2% and a viability, T/C [24] of 42.8%. It also gave a viability, T/C [25] of 82.8%, a viability, T/C [26] of 68.1% and a viability, T/C [27] of 47.9%. It also gave a viability, T/C [28] of 48.9%, a viability, T/C [29] of 61.7% and a viability, T/C [30] of 50.8%. The viability, T/C [31] was 71.3%, the viability, T/C [32] was 60.5% and the viability, T/C [33] was 41.1%. For the same compound, the viability, T/C [34] was 58.3%, the viability, T/C [35] was 61.7% and the viability, T/C [36] was 63.6%.
For `O=C(Nc1ccc(O)c(NS(=O)(=O)c2ccc(F)cc2)c1)c1ccc(-c2ccccc2)cc1` + COC1C(OC(N)=O)C(O)C(Oc2ccc3c(O)c(NC(=O)c4ccc(O)c(CC=C(C)C)c4)c(=O)oc3c2C)OC1(C)C, the IC50 (second compound 0.0316 µM) was over 10000 nM, the IC50 (second compound 0.1 µM) was over 10000 nM and the IC50 (second compound 0.316 µM) was over 10000 nM. For the same compound, the IC50 (second compound 1 µM) was over 10000 nM, the IC50 (second compound 3.16 µM) was over 10000 nM and the IC50 (second compound 10 µM) was over 10000 nM. The viability, T/C [1] was 98.4%, the viability, T/C [2] was 109% and the viability, T/C [3] was 104%. For the same compound, the viability, T/C [4] was 103%, the viability, T/C [5] was 102% and the viability, T/C [6] was 97.3%. It also gave a viability, T/C [7] of 112%, a viability, T/C [8] of 94.4% and a viability, T/C [9] of 97%. The viability, T/C [10] was 88.8%, the viability, T/C [11] was 96% and the viability, T/C [12] was 95.1%. For the same compound, the viability, T/C [13] was 108%, the viability, T/C [14] was 102% and the viability, T/C [15] was 105%. The viability, T/C [16] was 96%, the viability, T/C [17] was 102% and the viability, T/C [18] was 97.3%. The viability, T/C [19] was 98.3%, the viability, T/C [20] was 98.7% and the viability, T/C [21] was 86%. It also gave a viability, T/C [22] of 94%, a viability, T/C [23] of 93.9% and a viability, T/C [24] of 99.3%. The viability, T/C [25] was 97.5%, the viability, T/C [26] was 93.2% and the viability, T/C [27] was 91.8%. It also gave a viability, T/C [28] of 90.2%, a viability, T/C [29] of 97.5% and a viability, T/C [30] of 98.8%. The viability, T/C [31] was 93.6%, the viability, T/C [32] was 95.7% and the viability, T/C [33] was 109%. The viability, T/C [34] was 91.5%, the viability, T/C [35] was 102% and the viability, T/C [36] was 91.5%.
With `COc1cccc2c1C(=O)c1c(O)c3c(c(O)c1C2=O)CC(O)(C(=O)CO)CC3OC1CC(N)C(O)C(C)O1` (stereo unspecified) + Cc1cccc(N(C)C(=O)C2C(O)CCN2c2nc(C)cc(C(F)(F)F)c2C#N)c1 the IC50 (second compound 0.0316 µM) was 2650 nM, the IC50 (second compound 0.1 µM) was 2390 nM and the IC50 (second compound 0.316 µM) was 4160 nM. For the same compound, the IC50 (second compound 1 µM) was 1540 nM, the IC50 (second compound 3.16 µM) was 2000 nM and the IC50 (second compound 10 µM) was 1780 nM. The viability, T/C [1] was 81.4%, the viability, T/C [2] was 98.2% and the viability, T/C [3] was 104%. The viability, T/C [4] was 85.8%, the viability, T/C [5] was 43.6% and the viability, T/C [6] was 10.9%. The viability, T/C [7] was 101%, the viability, T/C [8] was 102% and the viability, T/C [9] was 113%. It also gave a viability, T/C [10] of 76.6%, a viability, T/C [11] of 42.2% and a viability, T/C [12] of 9.45%. It also gave a viability, T/C [13] of 99.3%, a viability, T/C [14] of 108% and a viability, T/C [15] of 116%. For the same compound, the viability, T/C [16] was 95.4%, the viability, T/C [17] was 63.4% and the viability, T/C [18] was 9.08%. It also gave a viability, T/C [19] of 92.8%, a viability, T/C [20] of 111% and a viability, T/C [21] of 99.8%. The viability, T/C [22] was 63.7%, the viability, T/C [23] was 26.1% and the viability, T/C [24] was 9.7%. It also gave a viability, T/C [25] of 82.9%, a viability, T/C [26] of 115% and a viability, T/C [27] of 92.2%. It also gave a viability, T/C [28] of 97%, a viability, T/C [29] of 18.8% and a viability, T/C [30] of 10.2%. The viability, T/C [31] was 102%, the viability, T/C [32] was 104% and the viability, T/C [33] was 90.7%. It also gave a viability, T/C [34] of 56.2%, a viability, T/C [35] of 41.9% and a viability, T/C [36] of 9.99%.
